One may read the IC50 as the concentration needed to halve the response being measured.

This passage reports IC50 results from patent US11053221B2, “Substituted pyrimidines for inhibiting embryonic leucine zipper kinase activity” (Arrien Pharmaceuticals LLC, priority 2018, dated 2021).

One assay deals with T1, FLT3 (Homo sapiens, UniProt P36888).
T1 construct: purchased Reaction Biology Corporation
T1 sequence (P36888 27-993): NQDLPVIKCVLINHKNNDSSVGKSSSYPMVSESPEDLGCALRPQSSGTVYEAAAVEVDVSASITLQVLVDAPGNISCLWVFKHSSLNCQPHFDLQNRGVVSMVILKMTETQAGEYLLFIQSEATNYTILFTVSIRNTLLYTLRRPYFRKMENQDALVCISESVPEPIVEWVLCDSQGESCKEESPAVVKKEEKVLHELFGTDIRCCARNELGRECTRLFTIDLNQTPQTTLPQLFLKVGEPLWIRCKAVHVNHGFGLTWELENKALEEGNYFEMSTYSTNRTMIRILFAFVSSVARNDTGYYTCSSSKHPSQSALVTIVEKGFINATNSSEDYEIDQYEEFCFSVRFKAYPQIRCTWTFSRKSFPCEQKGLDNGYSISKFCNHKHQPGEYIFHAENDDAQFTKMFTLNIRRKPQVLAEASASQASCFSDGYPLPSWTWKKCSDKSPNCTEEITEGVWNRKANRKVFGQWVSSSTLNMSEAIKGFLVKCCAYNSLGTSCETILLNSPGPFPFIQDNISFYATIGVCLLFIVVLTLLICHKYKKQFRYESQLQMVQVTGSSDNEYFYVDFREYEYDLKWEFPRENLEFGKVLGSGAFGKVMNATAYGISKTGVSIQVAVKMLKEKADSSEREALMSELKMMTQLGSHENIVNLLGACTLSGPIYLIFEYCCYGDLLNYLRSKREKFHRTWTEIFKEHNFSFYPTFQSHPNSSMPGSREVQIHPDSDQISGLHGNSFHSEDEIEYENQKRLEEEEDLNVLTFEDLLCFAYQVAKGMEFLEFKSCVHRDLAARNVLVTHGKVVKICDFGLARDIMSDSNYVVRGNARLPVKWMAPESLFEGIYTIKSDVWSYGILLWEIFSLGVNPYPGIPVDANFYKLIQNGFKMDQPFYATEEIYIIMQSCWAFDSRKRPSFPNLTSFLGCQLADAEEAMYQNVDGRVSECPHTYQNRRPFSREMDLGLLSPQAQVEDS
The experiment in a line: HotSpot kinase assay, FLT3. It counts as biochemical. The conditions noted are these: HotSpot radiometric 33P ATP assay, 25° C., 120 min. The protocol: (§1) In vitro profiling of the MELK, MELK (T460M) kinase panel was performed at Reaction Biology Corporation using the “HotSpot” assay platform. In vitro profiling of the FLT3, FLT3 mutant forms; FLT3 (D835Y), FLT3 (F594R595insR), FLT3 (F594R595insREY), FLT3 (ITD), FLT3 (ITD)-NPOS, FLT3 (ITD)-W51 and FLT3 (R595_E596insEY) kinase panel is performed in the same manner.
(§2) Briefly, specific kinase/substrate pairs along with required cofactors were prepared in reaction buffer; 20 mM Hepes (pH 7.5), 10 mM MgCl2, 1 mM EGTA, 0.02% Brij35, 0.02 mg/mL BSA, 0.1 mM Na3VO4, 2 mM DTT, 1% DMSO. Compounds were delivered into the reaction, followed ˜20 min later by addition of a mixture of ATP (Sigma) and ^33P ATP (PerkinElmer) to a final concentration of […]. Reactions were carried out at 25° C. for 120 min, followed by spotting of the reactions onto P81 ion exchange filter paper (Whatman). Unbound phosphate was removed by extensive washing of filters in 0.75% phosphoric acid. […] IC50 values and curve fits were obtained using Prism (GraphPad Software).

The next assay has as its target T2, MELK (Homo sapiens, UniProt Q14680).
T2 construct: purchased Reaction Biology Corporation
The experiment in a line: HotSpot kinase assay, MELK. The assay is classed as biochemical. The conditions noted are these: HotSpot radiometric 33P ATP assay, 25° C., 120 min. On the procedure: as §1, §2

T2 sequence (Q14680 whole entry): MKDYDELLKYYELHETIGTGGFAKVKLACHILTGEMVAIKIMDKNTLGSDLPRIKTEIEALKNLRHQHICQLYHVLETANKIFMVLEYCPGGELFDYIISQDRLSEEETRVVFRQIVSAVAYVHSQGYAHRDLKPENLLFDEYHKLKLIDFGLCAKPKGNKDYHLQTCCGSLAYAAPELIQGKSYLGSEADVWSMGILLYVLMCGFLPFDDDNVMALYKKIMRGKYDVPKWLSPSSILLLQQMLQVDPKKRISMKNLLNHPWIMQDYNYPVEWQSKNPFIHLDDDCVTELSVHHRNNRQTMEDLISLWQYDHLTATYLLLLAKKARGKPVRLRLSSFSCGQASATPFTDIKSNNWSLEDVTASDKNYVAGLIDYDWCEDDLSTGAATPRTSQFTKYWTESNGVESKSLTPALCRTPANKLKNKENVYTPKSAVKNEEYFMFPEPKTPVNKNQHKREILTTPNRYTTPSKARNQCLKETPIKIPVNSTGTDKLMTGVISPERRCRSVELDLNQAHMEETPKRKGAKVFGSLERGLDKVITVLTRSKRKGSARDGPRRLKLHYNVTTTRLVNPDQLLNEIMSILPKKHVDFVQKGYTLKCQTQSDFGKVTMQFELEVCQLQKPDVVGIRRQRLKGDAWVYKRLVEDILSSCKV

For the compound `N[C@H]1CC[C@@H](COc2cncnc2-c2cnn(-c3ccccc3F)c2)CC1` [Compound I-25, (1s,4s)-4-(((4-(1-(2-fluorophenyl)-1H-pyrazol-4-yl)pyrimidin-5-yl)oxy)methyl)cyclo-hexan-1-amine], the IC50 against FLT3 and at MELK was under 200 nM each time.

For `N[C@H]1CC[C@H](COc2cncnc2-c2cnn(-c3ccccc3F)c2)CC1` [Compound I-26, (1r,4r)-4-(((4-(1-(2-fluorophenyl)-1H-pyrazol-4-yl)pyrimidin-5-yl)oxy)methyl)cyclo-hexan-1-amine], the IC50 against FLT3 and against MELK was under 200 nM in each case.

`Fc1ccccc1-n1cc(-c2ncnc(Cl)c2OCC2CCNCC2)cn1` [Compound I-27, 4-chloro-6-(1-(2-fluorophenyl)-1H-pyrazol-4-yl)-5-(piperidin-4-ylmethoxy)pyrim-idine]: the IC50 is under 200 nM at FLT3 and 200 to 1000 nM at MELK.

Take `c1ccc(-n2cc(-c3ncncc3OCC3CCNCC3)cn2)cc1` [Compound I-28, 4-(1-phenyl-1H-pyrazol-4-yl)-5-(piperidin-4-ylmethoxy)pyrim-idine]: the IC50 on FLT3 and at MELK was 200 to 1000 nM in each case.

With `Fc1cccc(F)c1-n1cc(-c2ncnc(Cl)c2OCC2CCNCC2)cn1` [Compound I-29, 4-chloro-6-(1-(2,6-difluorophenyl)-1H-pyrazol-4-yl)-5-(piperidin-4-ylmethoxy)pyrim-idine], the results for the IC50 against FLT3 and at MELK were 200 to 1000 nM and over 1000 nM, respectively.

In the case of `Fc1cccc(F)c1-n1cc(-c2ncncc2OCC2CCNCC2)cn1` [Compound I-30, 4-(1-(2,6-difluorophenyl)-1H-pyrazol-4-yl)-5-(piperidin-4-ylmethoxy)pyrim-idine], the IC50 against FLT3 and against MELK was 200 to 1000 nM throughout.

Turning to `OC1CCC(COc2cncnc2-c2cnn(-c3ccccc3F)c2)CC1` (stereo not shown) [Compound I-31, 4-(((4-(1-(2-fluorophenyl)-1H-pyrazol-4-yl)pyrimidin-5-yl)oxy)methyl)cyclo-hexan-1-ol], the figures for the half-inhibitory concentration (IC50) on FLT3 and against MELK were 200 to 1000 nM and over 1000 nM, respectively.

In the case of `CN1CCN(c2ccc(-n3cc(-c4ncncc4OC[C@H]4CC[C@@H](N)CC4)cn3)cc2)CC1` [Compound I-32, (1s,4s)-4-(((4-(1-(4-(4-methylpiperazin-1-yl)phenyl)-1H-pyrazol-4-yl)pyrimidin-5-yl)oxy)methyl)cyclo-hexan-1-amine], the IC50 at FLT3 and at MELK was under 200 nM in each case.

Take `N[C@H]1CC[C@@H](COc2cncnc2-c2cnn(-c3ccc(N4CCOCC4)cc3)c2)CC1` [Compound I-33, (1s,4s)-4-(((4-(1-(4-morpholinophenyl)-1H-pyrazol-4-yl)pyrimidin-5-yl)oxy)methyl)cyclo-hexan-1-amine]: the IC50 on FLT3 and against MELK was under 200 nM each time.

As to `CCS(=O)(=O)c1ccc(-n2cc(-c3ncncc3OC[C@H]3CC[C@@H](N)CC3)cn2)cc1` [Compound I-34, (1s,4s)-4-(((4-(1-(4-(ethylsulfonyl)phenyl)-1H-pyrazol-4-yl)pyrimidin-5-yl)oxy)methyl)cyclo-hexan-1-amine], the IC50 was under 200 nM against FLT3 and 200 to 1000 nM against MELK.

As to `CCS(=O)(=O)c1ccc(-n2cc(-c3ncncc3OC[C@H]3CC[C@@H](N)CC3)cn2)c(F)c1` [Compound I-35, (1s,4s)-4-(((4-(1-(4-(ethylsulfonyl)-2-fluorophenyl)-1H-pyrazol-4-yl)pyrimidin-5-yl)oxy)methyl)cyclo-hexan-1-amine], the half-maximal inhibitory concentration (IC50) on FLT3 and against MELK was 200 to 1000 nM in each case.
